# Assays:
# [1] = test system: UV-induced edema and erythema; experiment: Sinclair miniature swine phototoxicity model: sites exposed to UV, then treated topically for 7 days (treatment); assay type: in vivo; conditions: for average Draize score as compared to test sites treated with the control vehicle: test sites first exposed to UV radiation, then treated topically twice daily for 7 days, any of the tested dosages, vehicle ethanol, FIGS. 1-6; for treating or reversing UV induced erythema: topical application after UV exposure
# Procedure: Compositions comprising DGLA and/or 15-HETrE were tested for their ability to treat and/or prevent edema and erythema (e.g., UV induced erythema). In an exemplary method, a Sinclair miniature swine model of phototoxicity testing was employed to examine the effects of such compositions on UV-induced edema and erythema. Miniature swine were chosen for these studies as they have a skin structure that closely resembles that of humans. The miniature swine used in these studies were fed standard Sinclair S-9 ration or equivalent, once a day at a maintenance amount and had ad libitum access to deep well water. Throughout the study, the swine were housed individually in cages (˜3×5 ft) constructed of stainless steel with self-spanned polyvinyl chloride (PVC)-coated expanded metal flooring. The animal housing rooms were set to maintain a room temperature of 16 to 27° C. (61 to 81° F.), with fluorescent lights providing an approximate 12-hr light/12-hr dark photoperiod. The animals were acclimated for approximately 5 days prior to the start of dosing. During acclimation, animals were subject to a physical examination by a veterinarian and any animal with questionable health was excluded from these studies. For these studies, two groups each consisting of three animals (#1-#3) were used. For each animal, ten sites (e.g., dose sites) for were established on the torso and the hair at the site was clipped with an electric clipper. These sites were then shaved and demarcated by tattooing at least four days prior to the start of initial dosing on study day 1. The dose sites may be shaved with a razor the day prior to initial dose administration and prior to the second and third application when applicable. The sites (approximately 4 cm^2 in size) were evenly split on the left and right side with 5 sites demarcated on each side. Each animal was topically administered a composition comprising a control vehicle (ethanol), DGLA or HETrE to the demarcated test sites on the animal before and/or after exposure of the test sites to UV radiation. Specifically, a 0.1 mL dose of a composition comprising 1 mg/mL, 10 mg/mL, or 100 mg/mL of DGLA and a 0.1 mL dose of a composition comprising 0.1 mg/mL, 1.0 mg/mL, or 10 mg/mL 15-HETrE was applied to separate 4 cm^2 areas of the skin (e.g., test sites) on each animal to achieve a dose per area of 0.1 mg/4 cm^2, 1.0 mg/4 cm^2, or 10.0 mg/4 cm^2 DGLA or 0.1 mg/4 cm^2, 1.0 mg/4 cm^2, or 10.0 mg/4 cm^2 15-HETrE, respectively. Such compositions were applied via a pipette twice daily with approximately seven hours between administrations over 7 days. Table 1 below outlines the dosing regimen for the 10 sites on each animal and indicates the day that the animal was administered a dose of UV radiation. […]
# [2] = test system: UV-induced edema and erythema; experiment: Sinclair miniature swine phototoxicity model: sites treated topically for 7 days, then exposed to UV (prevention); assay type: in vivo; conditions: for prevention of UV-induced erythema: topical before UV exposure; for average Draize score as compared to test sites treated with the control vehicle: test sites first treated topically twice daily for 7 days, then exposed to UV radiation, vehicle ethanol, FIGS. 7-12
# Procedure: Compositions comprising DGLA and/or 15-HETrE were tested for their ability to treat and/or prevent edema and erythema (e.g., UV induced erythema). In an exemplary method, a Sinclair miniature swine model of phototoxicity testing was employed to examine the effects of such compositions on UV-induced edema and erythema. Miniature swine were chosen for these studies as they have a skin structure that closely resembles that of humans. The miniature swine used in these studies were fed standard Sinclair S-9 ration or equivalent, once a day at a maintenance amount and had ad libitum access to deep well water. Throughout the study, the swine were housed individually in cages (˜3×5 ft) constructed of stainless steel with self-spanned polyvinyl chloride (PVC)-coated expanded metal flooring. The animal housing rooms were set to maintain a room temperature of 16 to 27° C. (61 to 81° F.), with fluorescent lights providing an approximate 12-hr light/12-hr dark photoperiod. The animals were acclimated for approximately 5 days prior to the start of dosing. During acclimation, animals were subject to a physical examination by a veterinarian and any animal with questionable health was excluded from these studies. For these studies, two groups each consisting of three animals (#1-#3) were used. For each animal, ten sites (e.g., dose sites) for were established on the torso and the hair at the site was clipped with an electric clipper. These sites were then shaved and demarcated by tattooing at least four days prior to the start of initial dosing on study day 1. The dose sites may be shaved with a razor the day prior to initial dose administration and prior to the second and third application when applicable. The sites (approximately 4 cm^2 in size) were evenly split on the left and right side with 5 sites demarcated on each side. Each animal was topically administered a composition comprising a control vehicle (ethanol), DGLA or HETrE to the demarcated test sites on the animal before and/or after exposure of the test sites to UV radiation. Specifically, […] comprising 0.1 mg/mL, 1.0 mg/mL, or 10 mg/mL 15-HETrE was applied to separate 4 cm^2 areas of the skin (e.g., test sites) on each animal to achieve a dose per area of 0.1 mg/4 cm^2, 1.0 mg/4 cm^2, or 10.0 mg/4 cm^2 DGLA or 0.1 mg/4 cm^2, 1.0 mg/4 cm^2, or 10.0 mg/4 cm^2 15-HETrE, respectively. Such compositions were applied via a pipette twice daily with approximately seven hours between administrations over 7 days. Table 1 below outlines the dosing regimen for the 10 sites on each animal and indicates the day that the animal was administered a dose of UV radiation. For example, for test sites 5-7, the sites were first exposed to UV radiation on day 4 and then contacted topically with DGLA or HETrE on days 4-10. Additionally, for example, for test sites 8-10, the sites were topically contacted with DGLA or HETrE on days 1-7 and then exposed to UV radiation on day 8. [table] Animals receiving UV light were anesthetized via isoflurane gas and 100% oxygen. To exposure the animals to UV, a bank of fluorescent lamps utilizing 10 UVA and 1 UVB bulb was then suspended over the animal. The correct dose level of UV light applied to the designated dose site was verified using a Solar Light® light meter. Animals were exposed to MED/hi of 4 for a time period of 21 minutes yielding a MEDi of 1.4. […]
Structure (SMILES),average Draize score as compared to test sites treated with the control vehicle [1],treating or reversing UV induced erythema [1],"prevention of UV-induced erythema ([2]; dose of 0.01, 0.1, or 1.0 mg/mL HETrE)",average Draize score as compared to test sites treated with the control vehicle [2],"skin irritation by the high dose ([2]; 10 mg/mL dose of DGLA, topical, prevention of erythema could not be determined at this dose)",prevention of UV-induced erythema ([2]; dose of 0.1 or 1.0 mg/mL DGLA)
"CCCCCC(O)/C=C/C=C\C/C=C\CCCCCCC(=O)O (stereo not drawn) [HETrE, 15-Hydroxy-eicosa-8(Z),11(Z),13(E)-trienoic acid]",did not exhibit an appreciable difference,not capable of treating or reversing UV induced erythema,able to prevent UV-induced erythema,significant reduction,–,–
"CCCCC/C=C\C/C=C\C/C=C\CCCCCCC(=O)O [DGLA, cis-8,11,14-eicosatrienoic acid]",did not exhibit an appreciable difference,not capable of treating or reversing UV induced erythema,–,significant reduction,irritating to the skin,able to prevent UV-induced erythema

# — US9855236B2, “Pharmaceutical compositions comprising DGLA and/or 15-HETrE and methods of use thereof” (Dignity Sciences Limited, priority 2011, dated 2018)
